Assay results reported in patent publication US8431596B2 (Cancer Research Technology Limited, priority 2007, dated 2013).
Several values for one entry are separate records, joined by “and”; a condition that tells them apart may be missing. Equal entries are not always repeated.

Target: T1, AXL (human catalytic domain) (Homo sapiens, UniProt P30530)
T1 construct: purchased Upstate Ltd. 14-512
T1 sequence (P30530 473-894): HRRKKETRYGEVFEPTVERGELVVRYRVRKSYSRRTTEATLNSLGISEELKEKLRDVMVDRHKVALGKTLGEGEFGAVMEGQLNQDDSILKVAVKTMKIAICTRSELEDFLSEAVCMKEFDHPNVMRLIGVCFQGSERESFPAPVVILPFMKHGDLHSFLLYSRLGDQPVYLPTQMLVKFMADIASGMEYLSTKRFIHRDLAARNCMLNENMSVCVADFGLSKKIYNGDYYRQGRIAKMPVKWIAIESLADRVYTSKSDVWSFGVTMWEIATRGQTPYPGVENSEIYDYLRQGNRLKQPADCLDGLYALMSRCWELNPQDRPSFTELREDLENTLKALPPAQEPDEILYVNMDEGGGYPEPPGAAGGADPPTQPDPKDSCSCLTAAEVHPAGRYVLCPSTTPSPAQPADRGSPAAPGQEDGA
Test: AXL (human catalytic domain) Enzyme Activity Assay (IMAP fluorescence polarisation)
Format: biochemical
Outline: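 IMAP FP readout (Ex485/Em535, after overnight binding) measured inhibition of the human AXL catalytic domain (aa473-894, 15 nM final) acting on 100 nM 5FAM-CSK-tide at 150 μM ATP, equal to KM. Reactions ran 60 min at room temperature in pH 7.0 HEPES buffer; IC50 from 10-point curves.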

[1] = further data set (WW-001 through WW-169, XX-001 through XX-469, YY-001 through YY-016, ZZ-001 through ZZ-003), 150 μM ATP
[2] = first data set, recombinant AXL isoform 1 aa473-894, 150 μM ATP

| SMILES | IC50 [1] | IC50 [2] |
| --- | --- | --- |
| ClCc1cccc(-c2cccc3nc(Nc4ccc(OCCN5CCCC5)cc4)nn23)c1 [XX-341, [5-(3-Chloromethyl-phenyl)-[1,2,4]triazolo[1,5-a]pyridin-2-yl]-[4-(2-pyrrolidin-1-yl-ethoxy)-phenyl]-amine] | 100 to 1000 nM | – |
| CC(C)CNc1cccc2nc(NC(=O)C3CC3)nn12 [WW-079] | 1000 to 10000 nM | 1000 to 10000 nM |
| Cn1cc(-c2cccc(-c3cccc4nc(Nc5ccc(OCCN6CCCC6)cc5)nn34)c2)cn1 [XX-171] | 100 to 1000 nM | – |
| CC(C)(C)NC(=O)NCc1cccc(-c2cccc3nc(Nc4ccc(OCCN5CCCC5)cc4)nn23)c1 [XX-372] | 100 to 1000 nM | – |
| CSc1ccc(-c2cccc3nc(NC(=O)C4CC4)nn23)cc1 [WW-136] | 1000 to 10000 nM | 1000 to 10000 nM |
| Cn1cc(-c2cccc3nc(Nc4ccc(OCCN5CCCC5)cc4)nn23)cn1 [XX-017] | 100 to 1000 nM | < 1000 nM |
| CC(C)NC(=O)NCc1cccc(-c2cccc3nc(Nc4ccc(OCCN5CCCC5)cc4)nn23)c1 [XX-373] | 100 to 1000 nM | – |
| CNCCCOc1cccc(Nc2nc3cccc(-c4ccc5c(c4)OCCO5)n3n2)c1 [XX-069] | ≤ 100 nM | < 1000 nM |
| CCCCCCS(=O)(=O)n1cc(-c2cccc3nc(Nc4ccc(OCCN5CCCC5)cc4)nn23)cn1 [XX-379] | 100 to 1000 nM | – |
| CCn1cc(-c2cccc(-c3cccc4nc(Nc5ccc(OCCN6CCCC6)cc5)nn34)c2)cn1 [XX-172] | 100 to 1000 nM | – |
| CCOC(=O)c1cccc(-c2cccc3nc(Nc4ccc(OCCN5CCCC5)cc4)nn23)c1 [XX-089] | 1000 to 10000 nM | – |
| Cc1ccc(CS(=O)(=O)n2cc(-c3cccc4nc(Nc5ccc(OCCN6CCCC6)cc5)nn34)cn2)cc1 [XX-295] | 100 to 1000 nM | – |
| CN(C)CCNC(=O)c1ccc(-c2cccc3nc(NC(=O)C4CC4)nn23)cc1 [WW-009, 4-[2-(Cyclopropanecarbonyl-amino)-[1,2,4]triazolo[1,5-a]pyridin-5-yl]-N-(2-dimethylamino-ethyl)-benzamide] | 1000 to 10000 nM | 1000 to 10000 nM |
| COCc1ccc(-c2cccc3nc(Nc4ccc(OCCN5CCCC5)cc4)nn23)cc1 [XX-217] | 100 to 1000 nM | – |
| COc1ccc(-c2nccc3nc(Nc4ccc(OCCN5CCCCC5)cc4)nn23)cc1 [YY-002] | ≤ 100 nM | < 1000 nM |
| CCN(CC)CCOc1cccc(Nc2nc3ccnc(-c4ccc5c(c4)OCCO5)n3n2)c1 [YY-009] | 100 to 1000 nM | – |
| c1cc(-c2ccoc2)cc(-c2cccc3nc(Nc4ccc(OCCN5CCCC5)cc4)nn23)c1 [XX-165] | 100 to 1000 nM | – |
| CC(CNc1ccc(Nc2nc3cccc(-c4ccc5c(c4)OCCO5)n3n2)cc1)N1CCCC1 (stereo not drawn) [XX-139] | ≤ 100 nM | – |
| COc1ccc(-c2cccc3nc(Nc4ccc(N5CCOCC5)cc4)nn23)cc1 [XX-024] | ≤ 100 nM | 1000 to 10000 nM |
| c1cc(-c2ccc3c(c2)OCCO3)n2nc(Nc3ccc(N4CCNCC4)cc3)nc2c1 [XX-060] | ≤ 100 nM | < 1000 nM |
| Oc1ccc(-c2cccc3nc(Nc4ccc(OCCN5CCCC5)cc4)nn23)cc1 [XX-151] | 100 to 1000 nM | – |
| COc1cc(-c2cccc3nc(NC(=O)C4CC4)nn23)ccc1F [WW-098] | 1000 to 10000 nM | 1000 to 10000 nM |

| SMILES | IC50 [1] | IC50 [2] |
| --- | --- | --- |
| CC(C)(C)c1ccc(-c2cccc3nc(NC(=O)C4CC4)nn23)cc1 [WW-139] | 1000 to 10000 nM | 1000 to 10000 nM |
| c1ccc(-c2ccc(-c3cccc4nc(Nc5ccc(OCCN6CCCC6)cc5)nn34)cc2)cc1 [XX-216] | 100 to 1000 nM | – |
| c1ccc(Oc2ccc(-c3cccc4nc(Nc5ccc(OCCN6CCCC6)cc5)nn34)cc2)cc1 [XX-247] | 100 to 1000 nM | – |
| O=C(Nc1ccccc1)Nc1cccc(-c2cccc3nc(Nc4ccc(OCCN5CCCC5)cc4)nn23)c1 [XX-174, 1-Phenyl-3-(3-{2-[4-(2-pyrrolidin-1-yl-ethoxy)-phenylamino]-[1,2,4]triazolo[1,5-a]pyridin-5-yl}-phenyl)-urea] | 100 to 1000 nM | – |
| NCCSc1ccc(Nc2nc3cccc(-c4ccc5c(c4)OCCO5)n3n2)cc1 [XX-108] | ≤ 100 nM | – |
| Cc1cccc(-c2cccc3nc(Nc4ccc(OCCN5CCCC5)cc4)nn23)c1 [XX-213] | 100 to 1000 nM | – |
| COc1ccc(-c2cccc3nc(Nc4ccc(S(N)(=O)=O)cc4)nn23)cc1 [XX-063] | 1000 to 10000 nM | 1000 to 10000 nM |
| CCN(CC)CCOc1c(C)cc(Nc2nc3cccc(-c4ccc(OC)cc4)n3n2)cc1C [XX-416] | ≤ 100 nM | – |
| CN(C)CCOc1ccc(Nc2nc3cccc(-c4ccc5c(c4)OCCO5)n3n2)cc1 [XX-055] | ≤ 100 nM | < 1000 nM |
| CC(C)(C)OC(=O)Nc1cccc(-c2cccc3nc(Nc4ccc(OCCN5CCCC5)cc4)nn23)c1 [XX-156] | 1000 to 10000 nM | – |
| c1ccc(CNc2ccc(-c3cccc4nc(Nc5ccc(OCCN6CCCC6)cc5)nn34)cc2)cc1 [XX-252] | 100 to 1000 nM | – |
| CN(C)CCOc1cc(Nc2nc3cccc(-c4ccc5c(c4)OCCO5)n3n2)ccn1 [XX-079] | ≤ 100 nM | < 1000 nM |
| CCCCS(=O)(=O)n1cc(-c2cccc3nc(Nc4ccc(OCCN5CCCC5)cc4)nn23)cn1 [XX-296] | 1000 to 10000 nM | – |
| CC(C)Cn1cc(-c2cccc3nc(NC(=O)C4CC4)nn23)cn1 [WW-108] | 1000 to 10000 nM | 1000 to 10000 nM |
| c1cc(-c2ccsc2)n2nc(Nc3ccc(OCCN4CCCC4)cc3)nc2c1 [XX-201] | 100 to 1000 nM | – |
| NC(=O)COc1cccc(-c2cccc3nc(Nc4ccc(OCCN5CCCC5)cc4)nn23)c1 [XX-404] | 1000 to 10000 nM | – |
| O=C(Nc1ccc(-c2cccc3nc(Nc4ccc(OCCN5CCCC5)cc4)nn23)cc1)c1ccccc1 [XX-221, N-(4-{2-[4-(2-Pyrrolidin-1-yl-ethoxy)-phenylamino]-[1,2,4]triazolo[1,5-a]pyridin-5-yl}-phenyl)-benzamide] | 1000 to 10000 nM | – |
| CS(=O)(=O)c1ccc(-c2cccc3nc(NC(=O)C4CC4)nn23)cc1 [WW-014] | 1000 to 10000 nM | 1000 to 10000 nM |
| O=C(Nc1nc2cccc(-c3ccc(OCC4CC4)cc3)n2n1)C1CC1 [WW-121] | 1000 to 10000 nM | 1000 to 10000 nM |
| Cc1ccccc1CNc1cccc(-c2cccc3nc(Nc4ccc(OCCN5CCCC5)cc4)nn23)c1 [XX-454] | 100 to 1000 nM | – |
| Cc1noc(C)c1-c1ccc(-c2cccc3nc(Nc4ccc(OCCN5CCCC5)cc4)nn23)cc1 [XX-190] | 100 to 1000 nM | – |
| O=C(Nc1nc2cccc(-c3ccoc3)n2n1)C1CC1 [WW-056, Cyclopropanecarboxylic acid (5-furan-3-yl [1,2,4]triazolo[1,5-a]pyridin-2-yl)-amide] | 1000 to 10000 nM | 1000 to 10000 nM |

| SMILES | IC50 [1] | IC50 [2] |
| --- | --- | --- |
| COc1ccc(-c2cccc3nc(Nc4ccc(OCCNc5ccncc5)cc4)nn23)cc1 [XX-028] | 100 to 1000 nM | < 1000 nM |
| COc1ccc(-c2cccc3nc(Nc4ccc(OCCNCc5ccccc5)cc4)nn23)cc1 | 1000 to 10000 nM | < 1000 nM and 114 nM |
| COc1ccc(CNc2cccc(-c3cccc4nc(Nc5ccc(OCCN6CCCC6)cc5)nn34)c2)cc1 [XX-453] | 100 to 1000 nM | – |
| Cc1cc(C(=O)Nc2ccc(-c3cccc4nc(Nc5ccc(OCCN6CCCC6)cc5)nn34)cc2)on1 [XX-251] | 100 to 1000 nM | – |
| COc1ccccc1-c1cccc2nc(Nc3ccc(OCCN4CCCC4)cc3)nn12 [XX-194] | 1000 to 10000 nM | – |
| CN(C)CCNC(=O)c1cccc(Nc2nc3cccc(-c4ccc5c(c4)OCO5)n3n2)c1 [XX-002] | 100 to 1000 nM | < 1000 nM |
| COc1ccc(-c2cccc3nc(NC(=O)C4CCC4)nn23)cc1 [WW-042] | 1000 to 10000 nM | 1000 to 10000 nM |
| CCC(CC)Cn1cc(-c2cccc3nc(Nc4ccc(OCCN5CCCC5)cc4)nn23)cn1 [XX-319] | ≤ 100 nM | – |
| CS(=O)(=O)n1cc(-c2cccc3nc(Nc4ccc(OCCN5CCCC5)cc4)nn23)cn1 [XX-276, [5-(1-Methanesulfonyl-1H-pyrazol-4-yl)-[1,2,4]triazolo[1,5-a]pyridin-2-yl]-[4-(2-pyrrolidin-1-yl-ethoxy)-phenyl]-amine] | 100 to 1000 nM | – |
| C[C@H](CN)Oc1ccc(Nc2nc3cccc(-c4ccc5c(c4)OCCO5)n3n2)cc1 [XX-142] | 100 to 1000 nM | – |
| c1cc(-c2cnn(CC3CCCCC3)c2)n2nc(Nc3ccc(OCCN4CCCC4)cc3)nc2c1 [XX-356] | 100 to 1000 nM | – |
| COc1ccc(-c2cccc3nc(Nc4ccc(OCCO)cc4)nn23)cc1 [XX-011, 2-{4-[5-(4-methoxy-phenyl)-[1,2,4]triazolo[1,5-a]pyridin-2-ylamino]-phenoxy}-ethanol] | 1000 to 10000 nM | < 1000 nM |
| NC(=O)c1cccc(-c2cccc3nc(NC(=O)C4CC4)nn23)c1 [WW-015] | 1000 to 10000 nM | 1000 to 10000 nM |
| c1cc(-c2ccc3c(c2)OCCCO3)n2nc(Nc3ccc(OCCN4CCCC4)cc3)nc2c1 [XX-209] | 100 to 1000 nM | – |
| COc1ccc(-c2cccc3nc(NC(=O)CC4CC4)nn23)cc1 [WW-038] | 1000 to 10000 nM | 1000 to 10000 nM |
| CS(=O)(=O)Nc1ccc(-c2cccc3nc(NC(=O)C4CC4)nn23)cc1 [WW-017] | 1000 to 10000 nM | 1000 to 10000 nM |
| CCN(CC)CCCNc1cccc(Nc2nc3cccc(-c4ccc5c(c4)OCCO5)n3n2)c1 [XX-130] | ≤ 100 nM | – |
| CCC(C)S(=O)(=O)n1cc(-c2cccc3nc(Nc4ccc(OCCN5CCCC5)cc4)nn23)cn1 (stereo not drawn) [XX-383] | ≤ 100 nM | – |
| O=C(Nc1nc2cccc(-c3ccc(N4CCOCC4)nc3)n2n1)C1CC1 [WW-062] | 1000 to 10000 nM | 1000 to 10000 nM |
| Cc1nn(C)c(C)c1-c1cccc(-c2cccc3nc(Nc4ccc(OCCN5CCCC5)cc4)nn23)c1 [XX-170] | 100 to 1000 nM | – |
